Source: patent US9765065B2, “Therapeutic substituted cyclopentanes” (ALLERGAN, INC., priority 2007, dated 2017)

Tests used:
EP2 [1] = target: T1, EP2 (Homo sapiens, UniProt P43116); assay: EP2 cAMP; type: cell-based
Excerpt: (§1) U.S. patent application Ser. No. 11/553,143, filed on Oct. 26, 2006, incorporated by reference herein in its entirety, describes the methods used to obtain the in vitro data in the table below.

EP2 [2] = target: T1, EP2; assay: EP2 flipr; type: cell-based
Excerpt: as §1

EP4 [3] = target: T2, EP4 (Homo sapiens, UniProt P35408); assay: EP4 flipr; type: cell-based
T2 sequence (P35408 whole entry): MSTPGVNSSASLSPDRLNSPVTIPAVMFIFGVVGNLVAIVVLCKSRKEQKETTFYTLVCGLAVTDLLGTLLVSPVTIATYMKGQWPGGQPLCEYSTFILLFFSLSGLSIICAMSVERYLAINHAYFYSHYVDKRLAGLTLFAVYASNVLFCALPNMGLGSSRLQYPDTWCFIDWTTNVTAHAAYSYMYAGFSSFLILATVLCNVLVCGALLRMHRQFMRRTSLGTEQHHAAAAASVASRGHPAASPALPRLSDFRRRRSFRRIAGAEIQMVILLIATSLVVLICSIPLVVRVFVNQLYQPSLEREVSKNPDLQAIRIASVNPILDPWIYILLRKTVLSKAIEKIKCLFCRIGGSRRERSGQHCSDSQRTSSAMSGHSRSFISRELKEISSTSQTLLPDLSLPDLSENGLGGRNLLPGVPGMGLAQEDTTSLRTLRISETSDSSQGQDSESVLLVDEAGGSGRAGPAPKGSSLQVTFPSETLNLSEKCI
Excerpt: as §1

EP2 [4] = target: T1, EP2; assay: EP2 binding Ki
Excerpt: as §1

EP4 [5] = target: T2, EP4; assay: EP4 binding Ki
Excerpt: as §1

hDP = target: T3, hDP (Homo sapiens, UniProt Q13258); assay: Other receptors hDP; type: cell-based
T3 sequence (Q13258 1-359): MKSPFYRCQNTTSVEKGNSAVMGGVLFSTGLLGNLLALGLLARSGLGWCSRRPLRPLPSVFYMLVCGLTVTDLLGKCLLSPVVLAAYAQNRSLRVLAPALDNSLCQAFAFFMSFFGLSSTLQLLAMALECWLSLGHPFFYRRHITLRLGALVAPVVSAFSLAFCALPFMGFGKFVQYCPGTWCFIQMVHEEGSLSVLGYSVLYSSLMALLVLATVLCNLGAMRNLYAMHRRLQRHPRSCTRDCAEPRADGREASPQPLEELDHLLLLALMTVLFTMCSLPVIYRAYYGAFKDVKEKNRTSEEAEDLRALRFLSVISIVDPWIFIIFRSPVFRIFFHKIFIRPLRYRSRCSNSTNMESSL
Excerpt: as §1

hEP3A = target: T4, hEP3A (Homo sapiens, UniProt P43115); assay: Other receptors hEP3A; type: cell-based
T4 sequence (P43115 1-390): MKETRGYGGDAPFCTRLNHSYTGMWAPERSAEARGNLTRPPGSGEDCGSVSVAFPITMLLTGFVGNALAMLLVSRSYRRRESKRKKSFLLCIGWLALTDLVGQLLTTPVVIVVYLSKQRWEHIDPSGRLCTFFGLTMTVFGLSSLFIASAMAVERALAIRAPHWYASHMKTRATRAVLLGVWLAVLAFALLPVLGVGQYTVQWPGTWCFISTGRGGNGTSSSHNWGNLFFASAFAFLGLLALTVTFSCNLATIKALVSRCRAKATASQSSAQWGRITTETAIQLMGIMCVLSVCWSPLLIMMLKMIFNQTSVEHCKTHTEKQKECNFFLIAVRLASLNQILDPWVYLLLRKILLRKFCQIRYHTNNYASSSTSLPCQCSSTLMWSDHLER
Excerpt: as §1

T1 sequence (P43116 whole entry): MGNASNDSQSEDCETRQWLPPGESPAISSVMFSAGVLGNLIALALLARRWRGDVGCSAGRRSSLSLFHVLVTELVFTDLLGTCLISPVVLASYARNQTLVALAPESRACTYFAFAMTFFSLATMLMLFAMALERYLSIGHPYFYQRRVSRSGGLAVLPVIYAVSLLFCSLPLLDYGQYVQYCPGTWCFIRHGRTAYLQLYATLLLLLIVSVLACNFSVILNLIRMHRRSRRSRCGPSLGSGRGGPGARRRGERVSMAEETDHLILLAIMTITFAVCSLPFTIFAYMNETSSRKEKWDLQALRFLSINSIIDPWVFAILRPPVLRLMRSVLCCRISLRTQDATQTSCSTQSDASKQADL

| EC50 (EP2 [1]) [nM] | EC50 (EP2 [2]) [nM] | EC50 (EP4 [3]) [nM] | Ki (EP2 [4]) [nM] | Ki (EP4 [5]) [nM] | EC50 (hDP) [nM] | EC50 (hEP3A) [nM] | Structure (SMILES) |
| --- | --- | --- | --- | --- | --- | --- | --- |
| 0.13 | 85 | > 10000 | 2 | 135 | > 10000 | – | O=C(O)c1ccc(CCC[C@@H]2[C@@H](/C=C/c3cc(Cl)cc(CO)c3)[C@H](O)C[C@H]2Cl)s1 [Example 2, 5-(3-((1R,2R,3R,5R)-5-chloro-2-(3-chloro-5-(hydroxymethyl)styryl)-3-hydroxycyclopentyl)propyl)-thiophene-2-carboxylic acid] |
| 3 | 458 | 1920 | 38 | 1990 | 2100 | – | O=C(O)c1ccc(CCC[C@@H]2[C@@H](/C=C\c3cc(Cl)nc(Cl)c3)[C@H](O)C[C@H]2Cl)s1 [Example 5, 5-(3-((1R,2R,3R,5R)-5-chloro-2-((Z)-2-(2,6-dichloropyridin-4-yl)vinyl)-3-hydroxycyclopentyl)propyl)-thiophene-2-carboxylic acid] |
| 0.04 | 7 | 3460 | 1.2 | 616 | – | 3880 | O=C(O)c1csc(SCC[C@@H]2[C@@H](/C=C/c3cc(Cl)cc(Cl)c3)[C@H](O)C[C@H]2Cl)n1 [Example 14, 2-(2-((1R,2R,3R,5R)-5-chloro-2-(3,5-dichlorostyryl)-3-hydroxycyclopentyl)ethylthio)thiazole-4-carboxylic acid] |
| 0.05 | 9 | 33800 | 5 | 700 | – | 11000 | O=C(O)c1ccc(CCC[C@H]2C(=O)C[C@@H](O)[C@@H]2C#Cc2ccccc2)s1 [Example 17, 5-(3-((1R,2S,3R)-3-hydroxy-5-oxo-2-(phenylethynyl)cyclopentyl)propyl)thiophene-2-carboxylic acid] |
| 0.23 | 349 | 26600 | 4 | 1020 | – | > 10000 | O=C(O)c1ccc(CCC[C@@H]2[C@@H](C#Cc3ccccc3)[C@H](O)C[C@H]2F)s1 [Example 19, 5-(3-((1R,2S,3R,5R)-5-fluoro-3-hydroxy-2-(phenylethynyl)cyclopentyl)propyl)thiophene-2-carboxylic acid] |
| 0.18 | 235 | 21200 | 13 | 587 | – | > 10000 | N#C[C@@H]1C[C@@H](O)[C@H](C#Cc2ccccc2)[C@H]1CCCc1ccc(C(=O)O)s1 [Example 22, 5-(3-((1S,2S,3R,5R)-5-cyano-3-hydroxy-2-(phenylethynyl)cyclopentyl)propyl)thiophene-2-carboxylic acid] |
| 0.8 | – | 5880 | 10 | 825 | 18300 | 6520 | O=C(O)c1ccc(CCC[C@@H]2[C@@H](C#Cc3cccs3)[C@H](O)C[C@H]2Cl)s1 [Example 28, 5-(3-((1R,2S,3R,5R)-5-chloro-3-hydroxy-2-(thiophen-2-ylethynyl)cyclopentyl)propyl)thiophene-2-carboxylic acid] |
| 0.16 | – | 3.3 | 1.5 | 60 | 14800 | 2880 | O=C(O)c1csc(SCC[C@@H]2[C@@H](C#Cc3cc(Cl)cc(Cl)c3)[C@H](O)C[C@H]2Cl)n1 [Example 34, 2-(2-((1R,2S,3R,5R)-5-chloro-2-((3,5-dichlorophenyl)ethynyl)-3-hydroxycyclopentyl)ethylthio)thiazole-4-carboxylic acid] |
| 0.08 | – | 10 | 5 | 463 | 1030 | 1500 | O=C(O)c1csc(SCC[C@@H]2[C@@H](C#Cc3ccccc3)[C@H](O)C[C@H]2Cl)n1 [Example 35, 2-(2-((1R,2S,3R,5R)-5-chloro-3-hydroxy-2-(phenylethynyl)cyclopentyl)ethylthio)thiazole-4-carboxylic acid] |
